{
  "source": "patent US9315489B2",
  "about": "“Compounds and compositions for inhibiting the activity of ABL1, ABL2 and BCR-ABL1” (Novartis AG, priority 2012, dated 2016)",
  "key": {"[1]": {"system": "Ba/F3-BCR-ABL1-T315I cells", "assay": "Ba/F3-BCR-ABL1-T315I cellular proliferation assay", "type": "cell-based, murine", "conditions": "Mus musculus; 48 hours; read-out: Ba/F3-BCR-ABL1-T315I IC50", "description": "The murine bone marrow-derived cell line Ba/F3 was used to generate the appropriate cell line models. Ba/F3 cells were obtained from the German Collection of Microorganisms and Cell Cultures (DSMZ, Braunschweig and DSMZ No. ACC 300). […] These cells are referred to as Ba/F3-WT.\nTo generate Ba/F3 cells that depend on BCR-ABL1 expression for growth and survival, Ba/F3 cells were engineered to express BCR-ABL1 using retroviral transduction with a MSCV based retroviral vector containing a p210 BCR-ABL1expression cassette. When grown in the absence of IL-3, the proliferation of the cells is dependent on the expression of BCR-ABL1. (Daley, G. Q. and Baltimore, D. Transformation of an interleukin 3-dependent hematopoietic cell line by the chronic myeloid leukemia-specific p210 BCR-ABL1 protein. PNAS 1988; 85:9312-9316). These cells are referred to as Ba/F3-BCR-ABL1-WT. A similar approach was used to generate Ba/F3 cells that depend on a BCR-ABL1 variant in which threonine 315 is replaced with isoleucine. These cells are referred to as Ba/F3-BCR-ABL1-T3151.\nBa/F3-WT cells were maintained in RPMI1640 media with L-glutamine, HEPES (Lonza), 10% FBS (Gibco) and 5 ng/ml IL-3 (Calbiochem). Ba/F3-BCR-ABL1-WT cells and Ba/F3-BCR-ABL1-T3151 cells were maintained in RPMI1640 media with L-glutamine, HEPES (Lonza) and 10% FBS (Gibco).\nFor each cell line, the cell density was adjusted to 50 000 cells/mL and 50 μL (2500 cells) added per well of a 384-well assay plate.\nTest compounds were resuspended in DMSO at a concentration of 10 mM. A serial three-fold dilution of each compound with DMSO was performed in 384-well plates using the Janus Liquid Dispenser (PerkinElmer). Compound was delivered to the assay plates containing 2500 cells in a 50 μL volume via Acoustic delivery from an ATS-100 (EDC). For Ba/F3-BCR-ABL1-WT cell assays, […] of each compound dilution was transferred to the assay plate for final assay concentrations of 0.4 μM, 0.13 μM, 0.044 μM, 0.015 μM, 0.005 μM, 0.001 μM, 0.00033 μM, 0.00011 μM, 0.000037 μM, 0.000012 μM. For Ba/F3-WT and Ba/F3-BCR-ABL1-T315I cell assays, […] of each compound dilution was transferred to the assay plate for final assay concentrations of 10 μM, 3.33 μM, 1.11 μM, 0.37 μM, 0.12 μM, 0.041 μM, 0.014 μM, 0.0046 μM, 0.0015 μM, 0.00051 μM.\nCells were incubated at 37° C. in a humidified environment with 5% carbon dioxide for 48 hours. Britelite plus solution (Perkin Elmer) was prepared according to the manufacturer's instructions and 25 μL added to each well of the assay plate. Plates were incubated for 3-5 minutes and the luminescence detected on an EnVision Multimode plate reader (Perkin Elmer). The degree of luminescence correlates with the number of cells in each well. The effect of each inhibitor concentration can therefore be calculated and IC50 values generated."}, "Ba/F3-BCR-ABL1-WT cells": {"system": "Ba/F3-BCR-ABL1-WT cells", "assay": "Ba/F3-BCR-ABL1-WT cellular proliferation assay", "type": "cell-based, murine", "conditions": "Mus musculus; 48 hours; read-out: Ba/F3-BCR-ABL1-WT IC50", "protocol": "To generate Ba/F3 cells that depend on BCR-ABL1 expression for growth and survival, Ba/F3 cells were engineered to express BCR-ABL1 using retroviral transduction with a MSCV based retroviral vector containing a p210 BCR-ABL1expression cassette. […] These cells are referred to as Ba/F3-BCR-ABL1-WT.\nCells were incubated at 37° C. in a humidified environment with 5% carbon dioxide for 48 hours. Britelite plus solution (Perkin Elmer) was prepared according to the manufacturer's instructions and 25 μL added to each well of the assay plate. […] The degree of luminescence correlates with the number of cells in each well. The effect of each inhibitor concentration can therefore be calculated and IC50 values generated."}, "ABL1 (64-515) [2]": {"molecular_target": "T1, ABL1 (64-515) (Homo sapiens (Human), UniProt P00519)", "T1 sequence (P00519 64-515)": "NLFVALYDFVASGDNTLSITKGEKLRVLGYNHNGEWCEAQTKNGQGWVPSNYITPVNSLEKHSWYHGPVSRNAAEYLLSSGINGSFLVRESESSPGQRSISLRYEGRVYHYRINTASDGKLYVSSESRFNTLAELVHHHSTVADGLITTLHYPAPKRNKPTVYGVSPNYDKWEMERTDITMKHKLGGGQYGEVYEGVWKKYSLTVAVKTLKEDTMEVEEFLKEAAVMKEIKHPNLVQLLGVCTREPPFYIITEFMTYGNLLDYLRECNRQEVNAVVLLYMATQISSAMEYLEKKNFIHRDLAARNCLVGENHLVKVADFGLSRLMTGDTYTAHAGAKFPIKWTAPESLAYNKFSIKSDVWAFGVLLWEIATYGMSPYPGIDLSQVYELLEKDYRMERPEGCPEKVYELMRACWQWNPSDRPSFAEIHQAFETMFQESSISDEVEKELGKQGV", "assay": "Caliper ABL1 (64-515) assay (microfluidic mobility shift)", "type": "biochemical", "protocol": "All assays were performed in 384-well microtiter plates. Each assay plate contained 8-point serial dilutions for 40 test compounds, as well as four 8-point serial dilutions of staurosporine as a reference compound, plus 16 high and 16 low controls. Liquid handling and incubation steps were done on a Thermo CatX workstation equipped with Innovadyne Nanodrop Express. Between pipetting steps, tips were cleaned in wash cycles using wash buffer.\nThe assay plates were prepared by addition of 50 nL per well of compound solution in 90% DMSO. […] Plates with terminated kinase reactions were transferred to the Caliper LC3000 workstations for reading. Phosphorylated and unphosphorylated peptides were separated using the Caliper microfluidic mobility shift technology. Briefly, samples from terminated kinase reactions were applied to the chip. Analytes are transported through the chip by constant buffer flow and the migration of the substrate peptide is monitored by the fluorescence signal of its label. Phosphorylated peptide (product) and unphosphorylated peptide (substrate) are separated in an electric field by their charge/mass ratio. Kinase activities were calculated from the amounts of formed phospho-peptide. IC50 values were determined from percent inhibition values at different compound concentrations by non-linear regression analysis.\nTest compounds were dissolved in DMSO (10 mM) and transferred into 1.4 mL flat bottom or V-shaped Matrix tubes carrying a unique 2D matrix. The stock solutions were stored at +2° C. if not used immediately. For the test procedure the vials were defrosted and identified by a scanner whereby a working sheet was generated that guided the subsequent working steps.\nCompound dilutions were made in 96-well plates. This format enabled the assay of maximally 40 individual test compounds at 8 concentrations (single points) including 4 reference compounds. The dilution protocol included the production of “pre-dilution plates”, “master plates” and “assay plates”.\nPolypropylene 96-well plates were used as pre-dilution plates. […] All dilution steps were done on a HamiltonSTAR robot.\nThese plates were used directly for the assay which was performed in a total volume of 9.05 μL."}, "ABL1 (64-515) [3]": {"molecular_target": "T1, ABL1 (64-515)", "assay": "Radio ABL1 (64-515) assay (radiometric filter-binding)", "type": "biochemical", "protocol": "For determination of ABL kinase activity, the radiometric filter-binding assay was used. […] Pre-incubation of enzyme with compounds (when stated) was performed by exposing the enzyme to compounds prior to addition of the substrate mixture (ATP and/or peptide substrate). […] Millipore, Volketswil, Switzerland) prepared according to the manufacturer's instructions. Filter-plates were washed 3× with 0.5% H3PO4, followed by addition of 30 μL scintillation cocktail (Microscint, Perkin Elmer) per well and then analysed in a TopCount NXT scintillation counter (Perkin Elmer). Results were expressed as IC50 values."}},
  "data": [
    {"smiles": "O=C(Nc1ccc(OC(F)(F)F)cc1)c1cncc(-c2cncc(F)c2)c1", "note": "[Example 75, 5′-Fluoro-N-(4-(trifluoromethoxy)phenyl)-[3,3′-bipyridine]-5-carboxamide]", "values": [
      {"measurement": "IC50", "setting": "[1]", "result": 655, "unit": "nM"},
      {"measurement": "IC50", "setting": "Ba/F3-BCR-ABL1-WT cells", "result": 38, "unit": "nM"},
      {"measurement": "IC50", "setting": "ABL1 (64-515) [2]", "result": 26, "unit": "nM"}
    ]},
    {"smiles": "O=C(Nc1ccc(OC(F)(F)Cl)cc1)c1cnc(Cl)c(-c2cncc(F)c2)c1", "note": "[Example 78, 2-Chloro-N-(4-(chlorodifluoromethoxy)phenyl)-5′-fluoro-[3,3′-bipyridine]-5-carboxamide]", "values": [
      {"measurement": "IC50", "setting": "[1]", "result": 408, "unit": "nM"},
      {"measurement": "IC50", "setting": "Ba/F3-BCR-ABL1-WT cells", "result": 7, "unit": "nM"},
      {"measurement": "IC50", "setting": "ABL1 (64-515) [2]", "result": 3.9, "unit": "nM"}
    ]},
    {"smiles": "N#CC1(c2ncc(C(=O)Nc3ccc(OC(F)(F)F)cc3)cc2-c2cncnc2)CCC1", "note": "[Example 48, 6-(1-Cyanocyclobutyl)-5-(pyrimidin-5-yl)-N-(4-(trifluoromethoxy)phenyl)nicotinamide]", "values": [
      {"measurement": "IC50", "setting": "[1]", "result": 363, "unit": "nM"},
      {"measurement": "IC50", "setting": "Ba/F3-BCR-ABL1-WT cells", "result": 18, "unit": "nM"},
      {"measurement": "IC50", "setting": "ABL1 (64-515) [3]", "result": 9, "unit": "nM"},
      {"measurement": "IC50", "setting": "ABL1 (64-515) [2]", "result": 6.2, "unit": "nM"}
    ]},
    {"smiles": "O=C(Nc1ccc(OC(F)(F)F)cc1)c1cnc(Cl)c(-c2cncnc2)c1", "note": "[Example 56, 6-Chloro-5-(pyrimidin-5-yl)-N-(4-(trifluoromethoxy)phenyl)nicotinamide]", "values": [
      {"measurement": "IC50", "setting": "[1]", "result": 488, "unit": "nM"},
      {"measurement": "IC50", "setting": "ABL1 (64-515) [3]", "result": 10, "unit": "nM"},
      {"measurement": "IC50", "setting": "ABL1 (64-515) [2]", "result": 9.9, "unit": "nM"}
    ]},
    {"smiles": "O=C(Nc1ccc(OC(F)(F)Cl)cc1)c1cnc(Cl)c(-c2cncnc2)c1", "note": "[Example 76, 6-Chloro-N-(4-(chlorodifluoromethoxy)phenyl)-5-(pyrimidin-5-yl)nicotinamide]", "values": [
      {"measurement": "IC50", "setting": "[1]", "result": 61, "unit": "nM"},
      {"measurement": "IC50", "setting": "Ba/F3-BCR-ABL1-WT cells", "result": 2, "unit": "nM"},
      {"measurement": "IC50", "setting": "ABL1 (64-515) [2]", "result": 2.9, "unit": "nM"}
    ]},
    {"smiles": "O=C(Nc1ccc(OC(F)(F)F)cc1)c1cnc(OCCO)c(-c2cncnc2)c1", "note": "[Example 52, 6-(2-hydroxyethoxy)-5-(pyrimidin-5-yl)-N-(4-(trifluoromethoxy)phenyl)nicotinamide]", "values": [
      {"measurement": "IC50", "setting": "[1]", "result": 499, "unit": "nM"},
      {"measurement": "IC50", "setting": "ABL1 (64-515) [3]", "result": 23, "unit": "nM"},
      {"measurement": "IC50", "setting": "ABL1 (64-515) [2]", "result": 23, "unit": "nM"}
    ]},
    {"smiles": "Cc1ccc(C(=O)Nc2ccc(OC(F)(F)F)cc2)cc1-c1cncnc1", "note": "[Example 14, 4-Methyl-3-(pyrimidin-5-yl)-N-(4-(trifluoromethoxy)phenyl)benzamide]", "values": [
      {"measurement": "IC50", "setting": "[1]", "result": 306, "unit": "nM"},
      {"measurement": "IC50", "setting": "Ba/F3-BCR-ABL1-WT cells", "result": 2.1, "unit": "nM"},
      {"measurement": "IC50", "setting": "ABL1 (64-515) [3]", "result": 8.5, "unit": "nM"},
      {"measurement": "IC50", "setting": "ABL1 (64-515) [2]", "result": 3.5, "unit": "nM"}
    ]},
    {"smiles": "COC(=O)c1ccc(C(=O)Nc2ccc(OC(F)(F)F)cc2)cc1-c1cncnc1", "note": "[Example 68, Methyl 2-(pyrimidin-5-yl)-4-((4-(trifluoromethoxy)phenyl)carbamoyl)benzoate]", "values": [
      {"measurement": "IC50", "setting": "[1]", "result": 177, "unit": "nM"},
      {"measurement": "IC50", "setting": "ABL1 (64-515) [3]", "result": "< 3", "unit": "nM"},
      {"measurement": "IC50", "setting": "ABL1 (64-515) [2]", "result": 1.6, "unit": "nM"}
    ]}
  ]
}
